{"source": "patent US9492471B2", "about": "“Methods of treating a disease or disorder associated with Bruton'S Tyrosine Kinase” (Celgene Avilomics Research, Inc., priority 2013, dated 2016)", "experiment_in_all_cases": "HotSpot kinase profiling", "format_in_all_cases": "biochemical", "key": {"KHS/MAP4K5": {"biological_target": "T1, KHS/MAP4K5 (Homo sapiens, UniProt Q9Y4K4)", "T1 construct": "purchased Reaction Biology Corp", "T1 sequence (Q9Y4K4 whole entry)": "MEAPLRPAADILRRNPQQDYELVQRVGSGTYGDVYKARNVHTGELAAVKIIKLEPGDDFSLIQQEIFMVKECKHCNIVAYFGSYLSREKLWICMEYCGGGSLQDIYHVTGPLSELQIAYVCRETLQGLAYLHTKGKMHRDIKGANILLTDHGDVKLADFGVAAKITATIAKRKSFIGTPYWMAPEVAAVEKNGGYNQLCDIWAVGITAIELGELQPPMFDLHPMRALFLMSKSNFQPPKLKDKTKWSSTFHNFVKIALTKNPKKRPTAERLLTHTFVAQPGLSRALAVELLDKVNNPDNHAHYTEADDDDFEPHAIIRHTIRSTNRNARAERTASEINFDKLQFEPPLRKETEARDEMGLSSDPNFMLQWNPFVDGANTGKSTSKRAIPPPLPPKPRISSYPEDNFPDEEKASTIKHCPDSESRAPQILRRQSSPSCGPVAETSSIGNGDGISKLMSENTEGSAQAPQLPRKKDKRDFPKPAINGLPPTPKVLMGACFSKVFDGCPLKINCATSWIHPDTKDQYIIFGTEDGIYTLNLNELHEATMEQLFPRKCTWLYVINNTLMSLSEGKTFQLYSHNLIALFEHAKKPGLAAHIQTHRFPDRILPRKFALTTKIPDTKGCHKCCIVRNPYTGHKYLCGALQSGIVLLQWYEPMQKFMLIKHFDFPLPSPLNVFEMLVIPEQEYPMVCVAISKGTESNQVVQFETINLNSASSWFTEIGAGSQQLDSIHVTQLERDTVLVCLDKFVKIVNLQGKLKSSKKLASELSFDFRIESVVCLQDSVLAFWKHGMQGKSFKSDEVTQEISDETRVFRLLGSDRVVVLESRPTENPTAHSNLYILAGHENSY", "in_short": "(§1)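 Radio-isotope P81 filtration format. Substrate + required cofactors in reaction buffer, kinase added, 2 h RT. Stop, wash with 0.1% phosphoric acid, detect. % inhibition vs DMSO; mean of duplicates where repeated.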"}, "CAMKK2": {"biological_target": "T2, CAMKK2 (Homo sapiens, UniProt Q96RR4)", "T2 construct": "purchased Reaction Biology Corp", "T2 sequence (Q96RR4 whole entry)": "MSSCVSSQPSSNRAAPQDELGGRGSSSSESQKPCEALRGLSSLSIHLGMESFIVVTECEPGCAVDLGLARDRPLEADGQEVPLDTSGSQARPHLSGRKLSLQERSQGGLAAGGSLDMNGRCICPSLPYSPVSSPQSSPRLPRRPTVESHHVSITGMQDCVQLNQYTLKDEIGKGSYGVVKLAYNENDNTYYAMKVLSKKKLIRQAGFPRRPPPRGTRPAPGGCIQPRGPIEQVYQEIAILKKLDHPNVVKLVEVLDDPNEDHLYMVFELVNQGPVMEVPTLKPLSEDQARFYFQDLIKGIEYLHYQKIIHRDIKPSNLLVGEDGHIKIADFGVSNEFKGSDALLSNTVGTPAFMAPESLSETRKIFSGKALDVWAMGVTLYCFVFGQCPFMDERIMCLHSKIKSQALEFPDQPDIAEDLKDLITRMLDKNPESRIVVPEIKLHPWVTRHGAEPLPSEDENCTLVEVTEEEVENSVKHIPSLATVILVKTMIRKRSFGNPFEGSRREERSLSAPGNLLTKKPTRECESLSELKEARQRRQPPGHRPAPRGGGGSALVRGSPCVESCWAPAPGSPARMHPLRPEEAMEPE", "in_short": "as §1"}, "CAMK2g": {"biological_target": "T3, CAMK2g (Homo sapiens, UniProt Q13555)", "T3 construct": "purchased Reaction Biology Corp", "T3 sequence (Q13555 whole entry)": "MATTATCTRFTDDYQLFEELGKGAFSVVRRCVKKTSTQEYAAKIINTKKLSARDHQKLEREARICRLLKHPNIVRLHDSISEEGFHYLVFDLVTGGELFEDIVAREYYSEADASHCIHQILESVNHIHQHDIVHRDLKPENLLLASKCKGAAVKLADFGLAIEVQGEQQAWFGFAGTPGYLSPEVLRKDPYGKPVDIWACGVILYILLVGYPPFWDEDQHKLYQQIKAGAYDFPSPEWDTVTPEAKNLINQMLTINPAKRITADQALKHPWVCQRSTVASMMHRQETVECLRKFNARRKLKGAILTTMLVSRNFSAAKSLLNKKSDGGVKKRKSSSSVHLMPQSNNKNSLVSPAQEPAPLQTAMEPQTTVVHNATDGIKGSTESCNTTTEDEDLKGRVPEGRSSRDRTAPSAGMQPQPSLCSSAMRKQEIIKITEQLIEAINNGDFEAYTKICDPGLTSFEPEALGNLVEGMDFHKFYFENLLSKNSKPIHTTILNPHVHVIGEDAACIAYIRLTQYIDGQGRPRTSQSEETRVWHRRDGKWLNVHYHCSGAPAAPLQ", "in_short": "as §1"}, "PRKX": {"biological_target": "T4, PRKX (Homo sapiens, UniProt P51817)", "T4 construct": "purchased Reaction Biology Corp", "T4 sequence (P51817 1-358)": "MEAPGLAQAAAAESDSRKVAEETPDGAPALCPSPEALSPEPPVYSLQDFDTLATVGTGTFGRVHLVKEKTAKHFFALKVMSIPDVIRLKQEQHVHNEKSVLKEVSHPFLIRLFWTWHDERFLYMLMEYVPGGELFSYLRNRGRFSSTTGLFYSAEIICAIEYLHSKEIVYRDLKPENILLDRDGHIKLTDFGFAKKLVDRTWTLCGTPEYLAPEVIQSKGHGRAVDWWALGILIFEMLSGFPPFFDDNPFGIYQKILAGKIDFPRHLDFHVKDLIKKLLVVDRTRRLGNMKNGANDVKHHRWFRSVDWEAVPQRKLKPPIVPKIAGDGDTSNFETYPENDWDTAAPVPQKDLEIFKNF", "in_short": "as §1"}, "TAOK2/TAO1": {"biological_target": "T5, TAOK2/TAO1 (Homo sapiens, UniProt Q9UL54)", "T5 construct": "purchased Reaction Biology Corp", "T5 sequence (Q9UL54 1-1235)": "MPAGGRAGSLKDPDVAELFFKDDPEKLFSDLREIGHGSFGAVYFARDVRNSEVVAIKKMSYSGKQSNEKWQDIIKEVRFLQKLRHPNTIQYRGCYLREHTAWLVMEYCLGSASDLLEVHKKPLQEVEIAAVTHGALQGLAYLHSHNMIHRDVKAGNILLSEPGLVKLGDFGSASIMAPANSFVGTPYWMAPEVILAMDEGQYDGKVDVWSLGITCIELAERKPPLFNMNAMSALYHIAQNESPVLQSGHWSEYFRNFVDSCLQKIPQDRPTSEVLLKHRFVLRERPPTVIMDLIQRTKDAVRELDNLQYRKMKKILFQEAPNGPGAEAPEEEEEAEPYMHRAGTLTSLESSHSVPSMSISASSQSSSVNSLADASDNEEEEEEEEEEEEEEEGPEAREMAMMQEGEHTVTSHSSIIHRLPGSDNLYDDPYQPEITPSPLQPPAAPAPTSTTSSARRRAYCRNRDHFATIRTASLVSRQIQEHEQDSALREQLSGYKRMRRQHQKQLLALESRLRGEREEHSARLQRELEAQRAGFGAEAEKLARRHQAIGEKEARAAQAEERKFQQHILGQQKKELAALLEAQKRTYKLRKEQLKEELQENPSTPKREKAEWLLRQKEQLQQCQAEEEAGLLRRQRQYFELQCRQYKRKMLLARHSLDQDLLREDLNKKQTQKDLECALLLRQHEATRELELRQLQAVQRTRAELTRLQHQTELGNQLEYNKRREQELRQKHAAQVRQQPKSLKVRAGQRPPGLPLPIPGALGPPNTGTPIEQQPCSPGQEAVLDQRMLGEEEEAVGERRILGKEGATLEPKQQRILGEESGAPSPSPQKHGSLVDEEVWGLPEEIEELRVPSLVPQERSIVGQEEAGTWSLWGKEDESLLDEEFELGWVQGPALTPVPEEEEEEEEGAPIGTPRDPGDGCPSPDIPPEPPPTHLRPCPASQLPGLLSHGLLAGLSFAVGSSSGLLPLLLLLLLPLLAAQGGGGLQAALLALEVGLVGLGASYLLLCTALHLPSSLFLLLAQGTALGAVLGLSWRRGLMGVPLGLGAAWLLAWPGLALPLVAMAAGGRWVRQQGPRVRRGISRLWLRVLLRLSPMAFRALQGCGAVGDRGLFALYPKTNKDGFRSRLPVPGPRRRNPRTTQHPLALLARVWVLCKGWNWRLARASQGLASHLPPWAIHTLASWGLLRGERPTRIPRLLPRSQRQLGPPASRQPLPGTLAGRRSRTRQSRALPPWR", "in_short": "as §1"}, "TGFBR2": {"biological_target": "T6, TGFBR2 (Homo sapiens, UniProt P37173)", "T6 construct": "purchased Reaction Biology Corp", "T6 sequence (P37173 23-567)": "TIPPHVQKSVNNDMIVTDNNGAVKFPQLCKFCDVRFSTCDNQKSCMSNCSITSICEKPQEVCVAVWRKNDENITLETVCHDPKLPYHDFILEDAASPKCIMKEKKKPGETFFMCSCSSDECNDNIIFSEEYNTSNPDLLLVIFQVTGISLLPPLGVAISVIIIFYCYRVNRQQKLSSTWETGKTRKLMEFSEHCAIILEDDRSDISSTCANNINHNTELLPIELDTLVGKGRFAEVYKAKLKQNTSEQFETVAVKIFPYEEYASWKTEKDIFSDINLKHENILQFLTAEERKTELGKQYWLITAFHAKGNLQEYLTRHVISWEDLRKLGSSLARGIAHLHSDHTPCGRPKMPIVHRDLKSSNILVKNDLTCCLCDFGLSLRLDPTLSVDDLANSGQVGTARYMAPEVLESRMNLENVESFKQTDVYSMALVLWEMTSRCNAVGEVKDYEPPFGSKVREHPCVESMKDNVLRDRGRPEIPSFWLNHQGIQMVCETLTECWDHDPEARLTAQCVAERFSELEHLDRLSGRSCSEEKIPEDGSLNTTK", "in_short": "as §1"}, "WNK1": {"biological_target": "T7, WNK1 (Homo sapiens, UniProt Q9H4A3)", "T7 construct": "purchased Reaction Biology Corp", "T7 sequence (Q9H4A3 whole entry)": "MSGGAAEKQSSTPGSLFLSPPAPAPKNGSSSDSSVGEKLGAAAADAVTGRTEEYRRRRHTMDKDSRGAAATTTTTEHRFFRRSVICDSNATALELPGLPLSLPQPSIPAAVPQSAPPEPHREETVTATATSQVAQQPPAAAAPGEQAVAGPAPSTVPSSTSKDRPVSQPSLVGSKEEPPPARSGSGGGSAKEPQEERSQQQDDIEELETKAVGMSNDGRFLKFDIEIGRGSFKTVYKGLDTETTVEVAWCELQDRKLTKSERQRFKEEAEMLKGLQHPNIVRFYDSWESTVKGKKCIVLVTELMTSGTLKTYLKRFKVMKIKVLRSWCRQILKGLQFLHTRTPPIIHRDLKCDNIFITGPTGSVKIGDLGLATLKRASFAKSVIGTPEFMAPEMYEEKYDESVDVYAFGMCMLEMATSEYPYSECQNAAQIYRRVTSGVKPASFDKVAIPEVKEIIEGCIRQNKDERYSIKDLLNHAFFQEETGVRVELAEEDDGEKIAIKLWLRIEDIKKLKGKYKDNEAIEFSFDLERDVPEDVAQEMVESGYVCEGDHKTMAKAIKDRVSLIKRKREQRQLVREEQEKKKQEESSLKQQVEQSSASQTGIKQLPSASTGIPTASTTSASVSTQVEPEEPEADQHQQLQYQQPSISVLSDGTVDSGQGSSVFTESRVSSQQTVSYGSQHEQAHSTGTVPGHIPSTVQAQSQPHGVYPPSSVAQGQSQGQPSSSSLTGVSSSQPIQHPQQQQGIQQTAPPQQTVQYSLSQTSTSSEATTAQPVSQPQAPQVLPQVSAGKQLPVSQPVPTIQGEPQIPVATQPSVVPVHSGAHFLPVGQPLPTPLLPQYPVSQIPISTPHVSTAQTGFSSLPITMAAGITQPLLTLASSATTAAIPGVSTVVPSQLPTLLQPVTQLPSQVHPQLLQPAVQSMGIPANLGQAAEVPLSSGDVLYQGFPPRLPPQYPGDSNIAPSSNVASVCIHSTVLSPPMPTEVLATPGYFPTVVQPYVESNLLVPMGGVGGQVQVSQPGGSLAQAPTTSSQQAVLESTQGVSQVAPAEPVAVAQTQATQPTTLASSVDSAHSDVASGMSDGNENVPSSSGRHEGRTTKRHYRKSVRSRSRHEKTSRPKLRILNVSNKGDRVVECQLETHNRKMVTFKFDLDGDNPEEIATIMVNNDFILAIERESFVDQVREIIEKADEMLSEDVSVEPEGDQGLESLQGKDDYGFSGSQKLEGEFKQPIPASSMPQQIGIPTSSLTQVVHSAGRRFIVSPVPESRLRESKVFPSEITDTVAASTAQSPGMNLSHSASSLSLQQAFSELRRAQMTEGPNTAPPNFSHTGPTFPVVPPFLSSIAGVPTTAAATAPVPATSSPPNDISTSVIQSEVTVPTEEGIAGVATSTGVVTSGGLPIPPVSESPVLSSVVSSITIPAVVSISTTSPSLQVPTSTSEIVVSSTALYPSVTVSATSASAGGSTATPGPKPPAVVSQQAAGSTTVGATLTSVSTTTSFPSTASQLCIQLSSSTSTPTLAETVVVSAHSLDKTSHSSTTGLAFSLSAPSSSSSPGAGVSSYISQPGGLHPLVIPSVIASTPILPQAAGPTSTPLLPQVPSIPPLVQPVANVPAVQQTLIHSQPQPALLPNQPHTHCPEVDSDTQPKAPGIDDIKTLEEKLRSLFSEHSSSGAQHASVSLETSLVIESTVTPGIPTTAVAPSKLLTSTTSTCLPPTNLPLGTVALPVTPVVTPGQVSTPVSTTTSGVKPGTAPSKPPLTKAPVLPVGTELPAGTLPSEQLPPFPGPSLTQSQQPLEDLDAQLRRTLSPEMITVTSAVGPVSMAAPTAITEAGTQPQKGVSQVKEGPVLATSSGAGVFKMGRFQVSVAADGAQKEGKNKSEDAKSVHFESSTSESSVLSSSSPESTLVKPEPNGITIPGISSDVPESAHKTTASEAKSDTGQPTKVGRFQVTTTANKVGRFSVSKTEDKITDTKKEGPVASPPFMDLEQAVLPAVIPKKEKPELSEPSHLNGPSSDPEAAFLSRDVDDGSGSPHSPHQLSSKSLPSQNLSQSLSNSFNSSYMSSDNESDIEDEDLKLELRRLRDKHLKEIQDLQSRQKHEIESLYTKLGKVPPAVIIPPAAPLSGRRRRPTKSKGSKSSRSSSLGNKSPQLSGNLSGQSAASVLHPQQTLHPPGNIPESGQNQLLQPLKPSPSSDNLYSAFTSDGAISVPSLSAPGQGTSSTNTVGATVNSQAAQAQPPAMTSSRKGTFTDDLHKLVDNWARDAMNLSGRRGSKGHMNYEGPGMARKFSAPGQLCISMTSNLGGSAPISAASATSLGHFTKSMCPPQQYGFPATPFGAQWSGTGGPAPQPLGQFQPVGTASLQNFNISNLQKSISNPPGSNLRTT", "in_short": "as §1"}, "SIK1": {"biological_target": "T8, SIK1 (Homo sapiens, UniProt P57059)", "T8 construct": "purchased Reaction Biology Corp", "in_short": "as §1"}, "ALK2/ACVR1": {"biological_target": "T9, ALK2/ACVR1 (Homo sapiens, UniProt Q04771)", "T9 construct": "purchased Reaction Biology Corp", "in_short": "as §1"}, "[1]": {"conditions": "read-out: % Enzyme Activity (relative to DMSO controls) Run 1"}, "[2]": {"conditions": "read-out: % Enzyme Activity (relative to DMSO controls) Run 2"}}, "note": "Like-named read-outs stand apart in the source and are kept apart here."}
{"smiles": "C=CC(=O)Nc1cccc(Nc2nc(Nc3ccc(OCCOC)c(F)c3)ncc2F)c1", "note": "[Compound 2]", "values": [{"measurement": "inhibition at 3 µM", "setting": "KHS/MAP4K5", "value": 7.15, "unit": "%"}, {"measurement": "remaining activity at 3 µM", "setting": "KHS/MAP4K5; [1]", "value": 94.9, "unit": "%"}, {"measurement": "remaining activity at 3 µM", "setting": "KHS/MAP4K5; [2]", "value": 90.8, "unit": "%"}, {"measurement": "inhibition at 3 µM", "setting": "CAMKK2", "value": 26.8, "unit": "%"}, {"measurement": "remaining activity at 3 µM", "setting": "CAMKK2; [1]", "value": 74.7, "unit": "%"}, {"measurement": "remaining activity at 3 µM", "setting": "CAMKK2; [2]", "value": 71.8, "unit": "%"}, {"measurement": "inhibition at 3 µM", "setting": "CAMK2g", "value": -7.18, "unit": "%"}, {"measurement": "remaining activity at 3 µM", "setting": "CAMK2g; [1]", "value": 104, "unit": "%"}, {"measurement": "remaining activity at 3 µM", "setting": "CAMK2g; [2]", "value": 111, "unit": "%"}, {"measurement": "inhibition at 3 µM", "setting": "PRKX", "value": 1.8, "unit": "%"}, {"measurement": "remaining activity at 3 µM", "setting": "PRKX; [1]", "value": 97.9, "unit": "%"}, {"measurement": "remaining activity at 3 µM", "setting": "PRKX; [2]", "value": 98.5, "unit": "%"}, {"measurement": "inhibition at 3 µM", "setting": "TAOK2/TAO1", "value": 3.53, "unit": "%"}, {"measurement": "remaining activity at 3 µM", "setting": "TAOK2/TAO1; [1]", "value": 98.5, "unit": "%"}, {"measurement": "remaining activity at 3 µM", "setting": "TAOK2/TAO1; [2]", "value": 94.4, "unit": "%"}, {"measurement": "inhibition at 3 µM", "setting": "TGFBR2", "value": -0.19, "unit": "%"}, {"measurement": "remaining activity at 3 µM", "setting": "TGFBR2; [1]", "value": 98.1, "unit": "%"}, {"measurement": "remaining activity at 3 µM", "setting": "TGFBR2; [2]", "value": 102, "unit": "%"}, {"measurement": "inhibition at 3 µM", "setting": "WNK1", "value": -12.1, "unit": "%"}, {"measurement": "remaining activity at 3 µM", "setting": "WNK1; [1]", "value": 112, "unit": "%"}, {"measurement": "remaining activity at 3 µM", "setting": "WNK1; [2]", "value": 112, "unit": "%"}, {"measurement": "inhibition at 3 µM", "setting": "SIK1", "value": 51.4, "unit": "%"}, {"measurement": "remaining activity at 3 µM", "setting": "SIK1; [1]", "value": 48.4, "unit": "%"}, {"measurement": "remaining activity at 3 µM", "setting": "SIK1; [2]", "value": 48.7, "unit": "%"}, {"measurement": "remaining activity at 3 µM", "setting": "ALK2/ACVR1; [1]", "value": 385, "unit": "%"}, {"measurement": "remaining activity at 3 µM", "setting": "ALK2/ACVR1; [2]", "value": 385, "unit": "%"}]}
